Experimental data published in article PMC4923153, “Protection of Primary Dopaminergic Midbrain Neurons by GPR139 Agonists Supports Different Mechanisms of MPP^+ and Rotenone Toxicity” (Frontiers in Cellular Neuroscience, 2016).
pEC50: −log10 of the molar value.

Experiments:
[1] = biological target: T1, human GPR139 receptor (Homo sapiens, UniProt Q6DWJ6); assay: GPR139 calcium mobilization assay (CHO-K1 cells stably expressing the receptor); assay type: cell-based; settings: Ca2+ mobilization, determined as described (Shi et al., 2011); read-out: EC50 (GPR139 agonist)
T1 construct: expressed in transfected cells; host or cells: CHO-K1
T1 sequence (Q6DWJ6 1-353): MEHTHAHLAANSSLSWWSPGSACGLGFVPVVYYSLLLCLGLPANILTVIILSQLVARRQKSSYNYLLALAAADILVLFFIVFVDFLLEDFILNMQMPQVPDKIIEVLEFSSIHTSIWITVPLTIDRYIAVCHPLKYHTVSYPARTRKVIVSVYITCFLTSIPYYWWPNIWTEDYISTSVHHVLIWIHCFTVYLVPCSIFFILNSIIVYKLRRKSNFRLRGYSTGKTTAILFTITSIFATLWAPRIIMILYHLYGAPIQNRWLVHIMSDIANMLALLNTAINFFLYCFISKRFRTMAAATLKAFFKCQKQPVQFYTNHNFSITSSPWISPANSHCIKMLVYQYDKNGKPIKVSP
Experimental: EC50 and IC50 for all compounds were determined as described (Shi et al., [2011]).
All compounds were further characterized using GPR139-based Ca^2+ mobilization assays (Figure 5).
Figure 5 Additional characterization of GPR139 compounds using kinetic fluorescence measurements and concentration-response determination in calcium mobilization assays. (A–D) Examples for the kinetic of relative fluorescence units (RFU) for compound 1 and 4 and related controls, involving a two-step addition protocol. (A) Cellular fluorescence response to addition of buffer (approximately at time 0:00 min) and a second addition of buffer at 3:20 min. (B) Cellular fluorescence response to addition of the Ca^2+ ionophore and reference compound for complete release of Ca^2+ from intracellular stores, ionomycin. (C) Cellular response to addition of 10 μM compound 1 at time 0:00. (D) Cellular fluorescence in response to antagonist compound 4 (at 0:00, 50 μM) and addition of agonist compound 1 at EC85 concentration. […]
Standard molecular cloning techniques were used to generate Chinese hamster ovary (CHO-K1) cells stably expressing the human GPR139 receptor. […] Calcium flux was measured using a Hamamatsu FDSS7000 imaging-based plate reader (Hamamatsu Photonics) using 480 nm excitation light and emitted fluorescent light passed through a 525 nm emission filter and detected by a CCD camera. […]

[2] = biological target: DAT (Homo sapiens, UniProt Q01959); assay: Inhibition of binding to the DAT (cross reactivity); settings: concentration not given
Chain of DAT (Q01959 whole entry, species assumed): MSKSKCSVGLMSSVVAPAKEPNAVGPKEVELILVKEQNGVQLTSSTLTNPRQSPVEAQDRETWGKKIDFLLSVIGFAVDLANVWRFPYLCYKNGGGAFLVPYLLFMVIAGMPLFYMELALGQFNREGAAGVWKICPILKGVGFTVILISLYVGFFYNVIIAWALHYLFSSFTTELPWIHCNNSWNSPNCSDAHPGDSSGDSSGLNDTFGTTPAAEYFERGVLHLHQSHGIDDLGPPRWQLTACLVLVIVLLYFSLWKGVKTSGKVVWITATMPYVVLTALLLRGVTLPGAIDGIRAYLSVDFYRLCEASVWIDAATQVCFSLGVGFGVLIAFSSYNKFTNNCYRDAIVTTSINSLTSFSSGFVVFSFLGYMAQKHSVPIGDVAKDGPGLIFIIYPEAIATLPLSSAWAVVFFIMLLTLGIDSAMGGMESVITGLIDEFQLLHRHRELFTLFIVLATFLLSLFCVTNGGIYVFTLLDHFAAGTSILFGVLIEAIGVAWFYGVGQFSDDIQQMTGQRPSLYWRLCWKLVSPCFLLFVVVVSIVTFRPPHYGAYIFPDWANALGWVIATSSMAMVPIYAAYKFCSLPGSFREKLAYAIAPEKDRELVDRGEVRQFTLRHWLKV
Experimental: None of the compounds were useful in vivo tools due to their unfavorable ADME properties including low whole brain exposure and brain/plasma ratio (Shi et al., [2011]). Cross reactivity with the DAT or the norepinephrine transporter was determined as described (Shi et al., [2011]).
As both 6-OHDA and MPP^+ are taken up via the DAT, it was not likely that the agonists mediated their protection against MPP^+ by merely blocking the DAT. However, to further exclude the possibility that the protection against MPP^+ by the agonist compound 3 is mediated by blocking MPP^+ uptake, rather than signaling through GPR139, DA and noradrenaline uptake in the presence of the agonist was tested. […] Ten micrometres (10 μM) compound 1 inhibited binding to the DAT or the norepinephrine transporter by 4% or −8%, respectively (Shi et al., [2011]) compound 2 inhibited binding to the DAT or the norepinephrine transporter 2% or −4%, respectively.

CN(C)C1CCN(C(=O)CNC(=O)Cc2cccc3ccccc23)C1 (centres unmarked) [compound 2, N-[2-(3-Dimethylamino-pyrrolidin-1-yl)-2-oxo-ethyl]-2-Naphthalen-1-yl-acetamide]
pEC50 [1]: 6.28
inhibition of binding to the DAT [2]: 2%
